Here are results for one compound from patent publication EP1566447A1, “Glimepiride- and insulin-induced glycosylphosphatidylinositol-specific phospholipase C regulation” (priority 2004, dated 2005).

Entries after “also recorded” stand apart in the source; their conditions may differ.

One assay deals with T1, Pancreatic lipase (PL) (Sus scrofa, UniProt P00591).
T1 construct: crude porcine pancreatic lipase (PL); purchased Sigma/Aldrich (Deisenhofen, Germany); host or cells: porcine pancreas (crude preparation)
T1 sequence (P00591 1-450): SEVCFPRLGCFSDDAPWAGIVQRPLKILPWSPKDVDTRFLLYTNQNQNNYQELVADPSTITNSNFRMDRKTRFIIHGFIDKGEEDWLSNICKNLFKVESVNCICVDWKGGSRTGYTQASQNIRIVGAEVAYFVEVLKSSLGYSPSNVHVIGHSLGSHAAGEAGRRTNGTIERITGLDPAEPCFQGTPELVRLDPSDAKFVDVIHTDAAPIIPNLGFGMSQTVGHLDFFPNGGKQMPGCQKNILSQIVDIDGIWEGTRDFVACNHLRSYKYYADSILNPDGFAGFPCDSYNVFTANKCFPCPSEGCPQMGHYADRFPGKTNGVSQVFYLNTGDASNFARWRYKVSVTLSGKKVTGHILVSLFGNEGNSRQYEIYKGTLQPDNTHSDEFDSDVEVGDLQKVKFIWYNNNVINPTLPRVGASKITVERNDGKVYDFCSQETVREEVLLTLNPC
T1 sequence (P02703 23-112 partner): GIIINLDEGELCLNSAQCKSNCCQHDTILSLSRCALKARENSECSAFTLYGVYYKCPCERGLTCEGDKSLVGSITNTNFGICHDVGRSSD
The experiment in a line: selectivity: pancreatic lipase assay. Format: biochemical, porcine. To be noted: 50 µM. The protocol: Hormone-sensitive lipase (HSL) and lipoprotein lipase (LPL) were measured using a radiolabeled triolein droplet emulsion as described in "Vertesy et al., (2002) Journal Antibiotics 55:480-494". Pancreatic lipase (PL) was determined by incubation of 0.25 mmol tributyrin in 2 ml of 5 mM Tris/HCl (pH 6.5), 6 mM sodium taurodeoxycholate, 150 mM NaCl, 1 mM CaCl2 with porcine PL and colipase in the same buffer using a recording pH stat (stirring at 1000 rpm at 25°C) with the pH adjusted to 6.5. PC-PLC was assayed by incubation of 0.2 ml of 10 mM dipalmitoyllecithin, 0.1 ml of 10 mM SDC and 0.1 ml of 0.03 M CaCl2 with bacterial PC-PLC (in 50 mM Tris/HCl, pH 7.5, 0.1 % BSA) for 10 min at 37°C. The reaction was terminated by addition of 0.1 ml of 50 % TCA and subsequently of 2.5 ml of […]. After centrifugation (1500xg, 15 min), 0.2-ml portions of the upper methanol/water phase (~ 1.33 ml) was removed, supplemented with 0.5 ml of 60 % HClO4, then heated at 170°C for 1 h and finally analyzed for inorganic phosphate. Mammalian PI-PLC was measured by incubation of 0.1 ml of 10 mM PI, 0.1 ml of 0.8 % sodium deoxycholate, 0.1 % BSA, 0.2 ml of 100 mM sodium borate (pH 7.5) and rat liver PI-PLC for 20 min at 37°C. The reaction was terminated and further processed as described for the PC-PLC. […] Radioactive phosphatidic acid was detected by phosphorimaging. […]

A further assay relates to rat adipocytes. The experiment in a line: isoproterenol-induced lipolysis (glycerol release). In kind it is cell-based. Here is the method:
Electroporation was performed as described in "Müller, G. et al., (2000) Mol. Cell. Biol. 20: 4708-4723". Lipolysis was determined as release of glycerol or fluorescent NBD-FA from prelabeled and isoproterenol-stimulated adipocytes as described in "Müller, G. et al., (2003) Biochimie 85: 1245-1256". Gce1 was detected by photolabeling of solubilized plasma membranes or hc/IcDIGs (10-50 µg protein) with 8-N3-[^32P]cAMP and subsequent phosphorimaging as described in "Müller, G. et al., (1994) Biochemistry 33: 12149-12159". 5'-Nuc, aP and AChE activities were measured according to "Eliakim, R. et al., (1990) Biochim. Biophys. Acta 1355: 293-302". Protein was determined using the BCA protein determination kit from Pierce (Rockford, IL) and BSA as calibration standard. SDS-PAGE was performed using precast gels (Novex, San Diego, CA; 10 % Bis-Tris resolving gel, morpholinopropanesulfonic acid-SDS running buffer). Lumiimages were evaluated on a Lumilmager using Lumilmager software (Roche Diagnostics). Phosphor- and fluorescence images were processed and quantified using the Storm 860 Phosphorlmager system (Molecular Dynamics, Gelsenkirchen, Germany). Figures were constructed using the Adobe Photoshop software (Adobe Systems, Mountain View, CA).
Fig. 8: Effect of GPI-2350 on the glimepiride/insulin-induced metabolic activity. Isolated rat adipocytes were treated (5 min, 37°C) without or with GPI-2350 (Panel A, 50 µM; Panel B, increasing conc.; Panel C, 5 µM, 50 µM) and then incubated (15 min, 37°C) in the absence or presence of insulin (Ins, 10 nM) or glimepiride (Gli, 20 µM or increasing conc.) as indicated. The adipocytes were then assayed for glucose transport and isoproterenol-induced lipolysis. The activity is given relative to the absence of GPI-2350 in the control reaction (Panels A, basal) or in the insulin- and glimepiride-stimulated state (Panels B and C, set at 100). Means ± SD of at least 5 independent cell incubations with activity measurements in triplicate each are given.

For orientation: IC50 means the midpoint of a concentration-inhibition curve. A higher IC50 goes with a need for much substance. For orientation: inhibition means the drop in the measured response relative to a control, in per cent. With `CCCCCCCCCCCCP1(=O)O[C@@H]2[C@H](O)[C@@H](O)[C@H](O)[C@@H](O)[C@@H]2O1` (mixture of isomers) [GPI-2350, myo-inositol-1,2-cyclo-dodecylphosphonic acid], at Pancreatic lipase (PL), the “effect on lipase activity” value is recorded as “not significantly affected”. In addition, in the assay with rat adipocytes (50 µM), the “effect on inhibition of lipolysis in response to glimepiride” value is “almost complete blockade; also recorded: lower than control values”. In addition, the IC50 in the assay with rat adipocytes (Rattus norvegicus, Adipocyte) was in the range of 2 to 5 µM. Further, the inhibition at 50 µM in the assay with rat adipocytes (Rattus norvegicus, Adipocyte, 50 µM, insulin 10 nM, read-out: reduction of insulin inhibition of isoproterenol-induced lipolysis) is no more than 33%.
